Test results from patent US11001577B2, “Pesticidally active azetidine sulfones amide isoxazoline derivatives” (SYNGENTA PARTICIPATIONS AG, priority 2016, dated 2021).

Key:
Format in all cases: in vivo
Thrips tabaci = Thrips tabaci (onion thrips) feeding/contact activity; conditions: 144 h, application rate 200 ppm, mixed ages, 6 days after infestation, read-out: mortality
Experimental: Thrips tabaci (Onion Thrips) Feeding/Contact Activity
Sunflower leaf discs were placed on agar in 24-well microtiter plates and sprayed with aqueous test solutions prepared from 10,000 ppm DMSO stock solutions. After drying the leaf discs were infested with a thrips population of mixed ages. The samples were assessed for mortality 6 days after infestation.

Spodoptera littoralis = Spodoptera littoralis (Egyptian cotton leaf worm), cotton leaf discs; conditions: foliar, 72 h, application rate 200 ppm, L1 larvae, 3 days after infestation
Experimental: Spodoptera littoralis (Egyptian Cotton Leaf Worm)
Cotton leaf discs were placed onto agar in 24-well microtiter plates and sprayed with aqueous test solutions prepared from 10,000 ppm DMSO stock solutions. After drying the leaf discs were infested with five L1 larvae. The samples were assessed for mortality, anti-feeding effect, and growth inhibition in comparison to untreated samples 3 days after infestation. Control of Spodoptera littoralis by a test sample is given when at least one of the categories mortality, anti-feedant effect, and growth inhibition is higher than the untreated sample.

Myzus persicae = Myzus persicae (green peach aphid) feeding/contact activity; conditions: 144 h, application rate 200 ppm, mixed ages, 6 days after infestation, read-out: mortality
Experimental: Myzus persicae (Green Peach Aphid):Feeding/Contact Activity
Sunflower leaf discs were placed onto agar in a 24-well microtiter plate and sprayed with aqueous test solutions prepared from 10,000 ppm DMSO stock solutions. After drying, the leaf discs were infested with an aphid population of mixed ages. The samples were assessed for mortality 6 days after infestation.

Plutella xylostella = Plutella xylostella (diamond back moth), artificial diet; conditions: 120 h, application rate 200 ppm, L2 larvae, 5 days after infestation, read-out: effect in at least one of the two categories (mortality or growth inhibition)
Experimental: Plutella xylostella (Diamond Back Moth)
24-well microtiter plates with artificial diet were treated with aqueous test solutions prepared from 10,000 ppm DMSO stock solutions by pipetting. After drying, the plates were infested with L2 larvae (10 to 15 per well). The samples were assessed for mortality and growth inhibition in comparison to untreated samples 5 days after infestation.

Euschistus heros = Euschistus heros (neotropical brown stink bug), soybean leaves sprayed; conditions: 120 h, application rate 200 ppm, N2 nymphs, 5 days after infestation, read-out: effect in at least one of the two categories (mortality or growth inhibition)
Experimental: Euschistus heros (Neotropical Brown Stink Bug)
Soybean leaves on agar in 24-well microtiter plates were sprayed with aqueous test solutions prepared from 10,000 ppm DMSO stock solutions. After drying the leaves were infested with N2 nymphs. The samples were assessed for mortality and growth inhibition in comparison to untreated samples 5 days after infestation.

Tetranychus urticae = Tetranychus urticae (two-spotted spider mite) feeding/contact activity; conditions: 192 h, application rate 200 ppm, 8 days after infestation, read-out: mortality on mixed population (mobile stages)
Experimental: Tetranychus urticae (Two-Spotted Spider Mite):Feeding/Contact Activity
Bean leaf discs on agar in 24-well microtiter plates were sprayed with aqueous test solutions prepared from 10,000 ppm DMSO stock solutions. After drying the leaf discs were infested with a mite population of mixed ages. The samples were assessed for mortality on mixed population (mobile stages) 8 days after infestation.

Diabrotica balteata = Diabrotica balteata (corn root worm), maize sprouts sprayed; conditions: 96 h, application rate 200 ppm, L2 larvae, 4 days after infestation, read-out: effect in at least one of the two categories (mortality or growth inhibition)
Experimental: Diabrotica balteata (Corn Root Worm)
Maize sprouts placed onto an agar layer in 24-well microtiter plates were treated with aqueous test solutions prepared from 10,000 ppm DMSO stock solutions by spraying. After drying, the plates were infested with L2 larvae (6 to 10 per well). The samples were assessed for mortality and growth inhibition in comparison to untreated samples 4 days after infestation.

Cc1cc(C2=NO[C@@](c3cc(Cl)cc(Cl)c3)(C(F)(F)F)C2)ccc1C(=O)NC1CN(S(=O)(=O)N(C)C)C1 [Compound A03, 4-[(5S)-5-(3,5-dichlorophenyl)-5-(trifluoromethyl)-4H-isoxazol-3-yl]-N-[1-(dimethylsulfamoyl)azetidin-3-yl]-2-methyl-benzamide]
≥ 80%: mortality at 200 ppm (Thrips tabaci) | percent control (mortality, anti-feedant effect or growth inhibition) at 200 ppm (Spodoptera littoralis) | mortality at 200 ppm (Myzus persicae) | percent effect (mortality or growth inhibition) at 200 ppm (Plutella xylostella) | percent effect (mortality or growth inhibition) at 200 ppm (Euschistus heros) | mortality at 200 ppm (Tetranychus urticae) | percent effect (mortality or growth inhibition) at 200 ppm (Diabrotica balteata)
